# Experimental data published in patent publication US20170088545A1, “CARBOXAMIDE INHIBITORS” (Norvartis AG, priority 2014, published 2017).
# Columns and labels:
# Smurf-1 = Smurf-1 (Homo sapiens, UniProt Q9HCE7); assay: HECT E3 ligase autoubiquitinylation TR-FRET assay, Smurf-1; format: biochemical; conditions: 45 min incubation, 8-point dose-response
# From the text: (§1) To determine the HECT E3 ligase selectivity of the compounds, a panel of biochemical HECT E3 ligase autoubiquitinylation assays was employed (Smurf-1, Smurf-2, WWP1, WWP2, ITCH, Nedd4, Nedd4L and E6AP). The conjugation of ubiquitin to a protein substrate is a multistep process. In an initial ATP-requiring step, a thioester bond is formed between the carboxyl terminus of ubiquitin and an internal cystein residue of the ubiquitin-activating enzyme (E1). Activated ubiquitin is then transferred to a specific cystein residue of an ubiquitin-conjugating enzyme (E2). E2s donate ubiquitin to a HECT E3 ligase (E3) from which it is transferred to the substrate protein. HECT E3 ligases can auto-ubiquitinylate. This event is detected in the TR-FRET (Time-Resolved Fluorescence Resonance Energy Transfer) assay used in this panel. The reaction mix contains E1, E2, tagged-E3, biotin-conjugated ubiquitin, the compound and ATP in a suitable buffer and is incubated for 45 minutes to allow auto-ubiquitinylation of the E3 ligase. To measure the extent of ubiquitinylated E3 ligase by TR-FRET, the donor fluorophore Europium cryptate (Eu3+ cryptate), conjugated to streptavidin which subsequently binds to biotinylated ubiquitin, and the modified allophycocyanin XL665 (HTRF® primary acceptor fluorophore) coupled to a tag-specific antibody (HA, His or GST), which recognizes the respective E3 ligase fusion proteins, are added after the reaction is complete. When these two fluorophores are brought together by a biomolecular interaction (in this case ubiquitinylation of the E3 ligase), a portion of the energy captured by the Cryptate during excitation is released through fluorescence emission at 620 nm, while the remaining energy is transferred to XL665. This energy is then released by XL665 as specific fluorescence at 665 nm. Light at 665 nm is emitted only through FRET with Europium.
# (§2) Test and reference compounds are prepared at 180× [final] in 90% DMSO, and diluted 1:3 in 90% DMSO.
# (§3) For the biochemical assay panel, 50 nl of the test compounds, reference compounds and buffer/DMSO control are transferred to the respective wells of a 384-well white GREINER “SMALL VOLUME” PS plate. The assay panel is run at room temperature on a Biomek FX liquid handling workstation. To the assay plates containing 50 nl compound or control solutions in 90% DMSO, 4.5 ul of E3 ligase solution were added per well, followed by 4.5 ul of the pre-incubated E1/E2/Ub mix or the pre-diluted ubiquitin (LOW control). Plates are shaken vigorously after each addition. In this assay the compound concentrations range from 3 nM to 10 uM in an 8-point dose-response curve.
# (§4) After 45 min of incubation the ubiquitinylation reactions were stopped by adding 4.5 ul 2 mM NEM, immediately followed by 4.5 ul of a detection solution including the XL665-labeled antibody and the streptavidin-coupled europium to give a total volume of 18 ul. After an incubation time of 45 min in the dark, the plates are transferred into the Pherastar fluorescence reader to measure the TR-FRET signal.
# Smurf-2 = Smurf-2 (Homo sapiens, UniProt Q9HAU4); assay: HECT E3 ligase autoubiquitinylation TR-FRET assay, Smurf-2; format: biochemical; conditions: 45 min incubation, 8-point dose-response
# From the text: as §1, §2, §3, §4
# Chain of Smurf-1 (Q9HCE7 whole entry): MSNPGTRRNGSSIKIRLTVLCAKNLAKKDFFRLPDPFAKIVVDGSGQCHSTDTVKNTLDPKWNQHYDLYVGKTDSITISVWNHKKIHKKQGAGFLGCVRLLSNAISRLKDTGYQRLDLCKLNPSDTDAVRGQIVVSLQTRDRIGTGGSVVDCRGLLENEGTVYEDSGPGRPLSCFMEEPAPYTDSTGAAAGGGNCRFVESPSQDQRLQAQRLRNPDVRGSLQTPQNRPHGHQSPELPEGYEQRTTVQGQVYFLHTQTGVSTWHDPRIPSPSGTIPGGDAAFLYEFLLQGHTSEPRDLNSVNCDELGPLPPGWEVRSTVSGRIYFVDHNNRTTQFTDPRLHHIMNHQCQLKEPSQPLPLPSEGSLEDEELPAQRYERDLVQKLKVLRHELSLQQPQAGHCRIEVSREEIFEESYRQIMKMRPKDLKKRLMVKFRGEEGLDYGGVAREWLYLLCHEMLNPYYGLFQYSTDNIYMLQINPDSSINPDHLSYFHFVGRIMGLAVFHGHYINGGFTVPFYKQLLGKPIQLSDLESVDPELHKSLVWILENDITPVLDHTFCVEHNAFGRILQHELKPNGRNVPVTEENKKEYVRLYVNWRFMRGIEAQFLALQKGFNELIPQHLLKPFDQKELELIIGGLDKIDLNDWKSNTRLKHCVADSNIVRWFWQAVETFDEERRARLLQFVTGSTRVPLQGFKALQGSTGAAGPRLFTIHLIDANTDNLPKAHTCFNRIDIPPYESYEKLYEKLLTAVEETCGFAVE
# Chain of Smurf-2 (Q9HAU4 whole entry, species assumed): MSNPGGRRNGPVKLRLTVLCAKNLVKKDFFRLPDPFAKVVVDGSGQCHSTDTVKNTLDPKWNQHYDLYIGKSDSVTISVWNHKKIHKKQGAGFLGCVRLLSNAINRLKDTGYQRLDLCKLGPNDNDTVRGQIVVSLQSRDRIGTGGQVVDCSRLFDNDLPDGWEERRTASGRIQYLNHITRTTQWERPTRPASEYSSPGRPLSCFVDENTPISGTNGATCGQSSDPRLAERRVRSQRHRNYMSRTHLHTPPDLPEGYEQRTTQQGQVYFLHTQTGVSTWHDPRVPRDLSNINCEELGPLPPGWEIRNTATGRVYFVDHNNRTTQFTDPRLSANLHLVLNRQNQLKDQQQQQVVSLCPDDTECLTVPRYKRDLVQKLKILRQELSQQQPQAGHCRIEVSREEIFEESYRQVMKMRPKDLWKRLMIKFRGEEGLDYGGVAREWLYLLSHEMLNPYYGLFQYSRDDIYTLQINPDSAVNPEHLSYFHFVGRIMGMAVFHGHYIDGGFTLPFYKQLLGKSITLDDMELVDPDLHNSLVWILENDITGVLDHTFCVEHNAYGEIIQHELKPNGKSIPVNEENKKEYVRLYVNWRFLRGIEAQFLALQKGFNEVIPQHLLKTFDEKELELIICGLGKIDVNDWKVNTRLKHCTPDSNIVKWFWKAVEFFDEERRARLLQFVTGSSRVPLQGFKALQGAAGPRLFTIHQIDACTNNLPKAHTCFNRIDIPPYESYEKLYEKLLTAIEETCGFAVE
Structure (SMILES),IC50 (Smurf-1) [nM],IC50 (Smurf-2) [µM]
"Cc1c(C(=O)Nc2c(C)n(C)n(-c3ccccc3F)c2=O)noc1-c1ccc(C2CC2)cc1Cl [Example 002, 5-(2-Chloro-4-cyclopropylphenyl)-N-(2-(2-fluorophenyl)-1,5-dimethyl-3-oxo-2,3-dihydro-1H-pyrazol-4-yl)-4-methylisoxazole-3-carboxamide]",13.4,3.66
"Cc1c(NC(=O)c2noc(-c3ccc(OC(F)F)cc3Cl)c2Cl)c(=O)n(-c2ccccc2F)n1C [Example 003, 4-Chloro-5-(2-chloro-4-(difluoromethoxy)phenyl)-N-(2-(2-fluorophenyl)-1,5-dimethyl-3-oxo-2,3-dihydro-1H-pyrazol-4-yl)isoxazole-3-carboxamide]",54.3,16.8
"Cc1c(C(=O)Nc2c(C)n(C)n(-c3ccccc3F)c2=O)noc1-c1ccc(C(F)(F)F)cc1 [Example 008, N-(2-(2-Fluorophenyl)-1,5-dimethyl-3-oxo-2,3-dihydro-1H-pyrazol-4-yl)-4-methyl-5-(4-(trifluoromethyl)phenyl) isoxazole-3-carboxamide]",883,> 10
"Cc1c(C(=O)Nc2c(C)n(C)n(C3CCCCC3)c2=O)noc1-c1ccc(OC(F)(F)F)cc1Cl [Example 010, 5-(2-Chloro-4-(trifluoromethoxy)phenyl)-N-(2-cyclohexyl-1,5-dimethyl-3-oxo-2,3-dihydro-1H-pyrazol-4-yl)-4-methylisoxazole-3-carboxamide]",22.7,2.74
"CSc1ccc(-c2onc(C(=O)Nc3c(C)n(C)n(-c4ccccc4F)c3=O)c2C)cc1 [Example 011, N-(2-(2-Fluorophenyl)-1,5-dimethyl-3-oxo-2,3-dihydro-1H-pyrazol-4-yl)-4-methyl-5-(4-(methylthio)phenyl) isoxazole-3-carboxamide]",777,> 10
"COc1ccc(-c2onc(C(=O)Nc3c(C)n(C)n(-c4ccccc4F)c3=O)c2C)c(C(F)(F)F)c1 [Example 013, N-(2-(2-Fluorophenyl)-1,5-dimethyl-3-oxo-2,3-dihydro-1H-pyrazol-4-yl)-5-(4-methoxy-2-(trifluoromethyl)phenyl)-4-methylisoxazole-3-carboxamide]",102,> 20
"COc1ccc(-c2onc(C(=O)Nc3c(C)n(C)n(-c4ccccc4F)c3=O)c2Cl)c(F)c1Cl [Example 021, 4-Chloro-5-(3-chloro-2-fluoro-4-methoxyphenyl)-N-(2-(2-fluorophenyl)-1,5-dimethyl-3-oxo-2,3-dihydro-1H-pyrazol-4-yl)isoxazole-3-carboxamide]",810,> 10
"Cc1c(NC(=O)c2noc(-c3ccc(C4CC4)cc3Cl)c2Cl)c(=O)n(-c2ccccc2F)n1C [Example 030, 4-Chloro-5-(2-chloro-4-cyclopropylphenyl)-N-(2-(2-fluorophenyl)-1,5-dimethyl-3-oxo-2,3-dihydro-1H-pyrazol-4-yl)isoxazole-3-carboxamide]",13.3,5.4
"COc1ccc(-c2onc(C(=O)Nc3c(C)n(C)n(C4CCCCC4)c3=O)c2Br)c(Cl)c1 [Example 034, 4-Bromo-5-(2-chloro-4-methoxyphenyl)-N-(2-cyclohexyl-1,5-dimethyl-3-oxo-2,3-dihydro-1H-pyrazol-4-yl)isoxazole-3-carboxamide]",3.7,5.23
"Cc1c(NC(=O)c2noc(-c3ccc(Cl)cc3Cl)c2Br)c(=O)n(-c2ccccc2F)n1C [Example 037, 4-Bromo-5-(2,4-dichlorophenyl)-N-(2-(2-fluorophenyl)-1,5-dimethyl-3-oxo-2,3-dihydro-1H-pyrazol-4-yl)isoxazole-3-carboxamide]",36,17.8
"Cc1c(NC(=O)c2noc(-c3ccc(Cl)cc3Cl)c2C2CC2)c(=O)n(C2CCCCC2)n1C [Example 039, N-(2-Cyclohexyl-1,5-dimethyl-3-oxo-2,3-dihydro-1H-pyrazol-4-yl)-4-cyclopropyl-5-(2,4-dichlorophenyl) isoxazole-3-carboxamide]",8.3,7.5
"Cc1c(NC(=O)c2noc(-c3ccc(Cl)cc3Cl)c2C#N)c(=O)n(-c2ccccc2F)n1C [Example 042, 4-Cyano-5-(2,4-dichlorophenyl)-N-(2-(2-fluorophenyl)-1,5-dimethyl-3-oxo-2,3-dihydro-1H-pyrazol-4-yl)isoxazole-3-carboxamide]",450,19.2

# Continued by falling IC50 (Smurf-1), values first:
IC50 (Smurf-1) [nM],IC50 (Smurf-2) [µM],Structure (SMILES)
4150,> 10,"COc1cc(F)c(-c2onc(C(=O)Nc3c(C)n(C)n(-c4ccccc4F)c3=O)c2C)c(F)c1 [Example 046, 5-(2,6-difluoro-4-methoxyphenyl)-N-(2-(2-fluorophenyl)-1,5-dimethyl-3-oxo-2,3-dihydro-1H-pyrazol-4-yl)-4-methylisoxazole-3-carboxamide]"
1160,> 10,"COc1ccc(-c2onc(C(=O)Nc3c(C)n(C)n(-c4ccccc4F)c3=O)c2Cl)c(F)c1 [Example 022, 4-Chloro-5-(2-fluoro-4-methoxyphenyl)-N-(2-(2-fluorophenyl)-1,5-dimethyl-3-oxo-2,3-dihydro-1H-pyrazol-4-yl) isoxazole-3-carboxamide]"
1050,> 10,"Cc1c(C(=O)Nc2c(C)n(C)n(-c3ccccc3F)c2=O)noc1-c1ccc(N(C)C)cc1 [Example 012, 5-(4-(Dimethylamino)phenyl)-N-(2-(2-fluorophenyl)-1,5-dimethyl-3-oxo-2,3-dihydro-1H-pyrazol-4-yl)-4-methylisoxazole-3-carboxamide]"
220,> 20,"COc1ccc(-c2onc(C(=O)Nc3c(C)n(C)n(-c4ccccc4F)c3=O)c2F)c(Cl)c1 [Example 033, 5-(2-Chloro-4-methoxyphenyl)-4-fluoro-N-(2-(2-fluorophenyl)-1,5-dimethyl-3-oxo-2,3-dihydro-1H-pyrazol-4-yl)isoxazole-3-carboxamide]"
29.5,> 10,"Cc1c(C(=O)Nc2c(C)n(C)n(-c3ccccc3F)c2=O)noc1-c1ccc(Cl)cc1Cl [Example 001, 5-(2,4-Dichlorophenyl)-N-(2-(2-fluorophenyl)-1,5-dimethyl-3-oxo-2,3-dihydro-1H-pyrazol-4-yl)-4-methylisoxazole-3-carboxamide]"
23.5,10.8,"COc1ccc(-c2onc(C(=O)Nc3c(C)n(C)n(-c4ccccc4F)c3=O)c2C)c(Cl)c1 [Example 006, 5-(2-Chloro-4-methoxyphenyl)-N-(2-(2-fluorophenyl)-1,5-dimethyl-3-oxo-2,3-dihydro-1H-pyrazol-4-yl)-4-methylisoxazole-3-carboxamide]"
3.5,3.1,"Cc1c(C(=O)Nc2c(C)n(C)n(C3CCCCC3)c2=O)noc1-c1ccc(C2CC2)cc1Cl [Example 019, 5-(2-Chloro-4-cyclopropylphenyl)-N-(2-cyclohexyl-1,5-dimethyl-3-oxo-2,3-dihydro-1H-pyrazol-4-yl)-4-methylisoxazole-3-carboxamide]"
2.4,4.25,"Cc1c(NC(=O)c2noc(-c3ccc(Cl)cc3Cl)c2Cl)c(=O)n(C2CCCCC2)n1C [Example 023, 4-Chloro-N-(2-cyclohexyl-1,5-dimethyl-3-oxo-2,3-dihydro-1H-pyrazol-4-yl)-5-(2,4-dichlorophenyl) isoxazole-3-carboxamide]"
